Reference: patent US20240316007A1, “COMPOSITIONS AND TREATMENTS WITH NIROGACESTAT” (SpringWorks Therapeutics, Inc., priority 0001, published 2024)
Structures can show the parent of a compound that is named as a salt.

Legend:
[1] = Pharmacokinetic parameters for single and multiple oral doses of nirogacestat dihydrobromide; type: in vivo
Excerpt: The pharmacokinetic parameters for single and multiple oral doses of nirogacestat dihydrobromide (PF-03084014) are provided in Table 1 below.

[2] = system: progressing desmoid tumors; conditions: Phase 2 study, participants with progressing desmoid tumors; cited from earlier work
[3] = Cohort 1: 150 mg, 1 × 150 mg, APERIOD 2, EXDOSE 150, N 10, Geometric Mean
[4] = Cohort 1: 150 mg, 1 × 150 mg, APERIOD 2, EXDOSE 150, N 10, Max
[5] = Cohort 1: 150 mg, 1 × 150 mg, APERIOD 2, EXDOSE 150, N 10, Median
[6] = Cohort 1: 150 mg, 1 × 150 mg, APERIOD 2, EXDOSE 150, N 10, Min
[7] = Cohort 1: 150 mg, 3 × 50 mg, APERIOD 1, EXDOSE 150, N 10, Max
[8] = Cohort 1: 150 mg, 3 × 50 mg, APERIOD 1, EXDOSE 150, N 10, Min
[9] = Cohort 2: 100 mg, APERIOD 1, EXDOSE 100, N 8, Geometric Mean
[10] = Cohort 2: 100 mg, APERIOD 1, EXDOSE 100, N 8, Max
[11] = Cohort 2: 100 mg, APERIOD 1, EXDOSE 100, N 8, Median
[12] = Cohort 2: 100 mg, APERIOD 1, EXDOSE 100, N 8, Min
[13] = Cohort 3: 50 mg, APERIOD 1, EXDOSE 50.0, N 8, Max
[14] = Cohort 3: 50 mg, APERIOD 1, EXDOSE 50.0, N 8, Median
[15] = Cohort 3: 50 mg, APERIOD 1, EXDOSE 50.0, N 8, Min

CCC[C@H](N[C@H]1CCc2cc(F)cc(F)c2C1)C(=O)Nc1cn(C(C)(C)CNCC(C)(C)C)cn1 [nirogacestat dihydrobromide, (S)-2-(((S)-6,8-difluoro-1,2,3,4-tetrahydronaphthalen-2-yl)amino)-N-(1-(2-methyl-1-(neopentylamino)propan-2-yl)-1H-imidazol-4-yl)pentanamide]
AUCinf [1, 3]: 3020 ng·h/mL
AUClast [1, 3]: 2930 ng·h/mL
CL/F [1, 3]: 49.7 L/h
Cmax [1, 3]: 686 ng/mL
Half-life [1, 3]: 24.7 h
AUCinf [1, 4]: 5880 ng·h/mL
AUClast [1, 4]: 5720 ng·h/mL
CL/F [1, 4]: 82.0 L/h
Cmax [1, 4]: 1200 ng/mL
Half-life [1, 4]: 34.7 h
Tmax [1, 4]: 1.52 h
AUCinf [1, 5]: 3100 ng·h/mL
AUClast [1, 5]: 3040 ng·h/mL
CL/F [1, 5]: 48.4 L/h
Tmax [1, 5]: 1.50 h
AUCinf [1, 6]: 1830 ng·h/mL
AUClast [1, 6]: 1790 ng·h/mL
CL/F [1, 6]: 25.5 L/h
Cmax [1, 6]: 456 ng/mL
Half-life [1, 6]: 13.3 h
Tmax [1, 6]: 0.500 h
CL/F ([1]; Cohort 1: 150 mg, 3 × 50 mg, APERIOD 1, EXDOSE 150, N 10, Geometric Mean): 49.2 L/h
AUCinf [1, 7]: 4870 ng·h/mL
AUClast [1, 7]: 4660 ng·h/mL
CL/F [1, 7]: 69.5 L/h
Cmax [1, 7]: 1120 ng/mL
Half-life [1, 7]: 32.0 h
Tmax [1, 7]: 2.00 h
CL/F ([1]; Cohort 1: 150 mg, 3 × 50 mg, APERIOD 1, EXDOSE 150, N 10, Median): 57.0 L/h
AUCinf [1, 8]: 2160 ng·h/mL
AUClast [1, 8]: 2080 ng·h/mL
CL/F [1, 8]: 30.8 L/h
Cmax [1, 8]: 547 ng/mL
Half-life [1, 8]: 18.1 h
AUCinf [1, 9]: 1780 ng·h/mL
AUClast [1, 9]: 1720 ng·h/mL
CL/F [1, 9]: 56.1 L/h
Cmax [1, 9]: 435 ng/mL
Half-life [1, 9]: 25.2 h
Tmax [1, 9]: 1.19 h
AUCinf [1, 10]: 3940 ng·h/mL
AUClast [1, 10]: 3710 ng·h/mL
CL/F [1, 10]: 124 L/h
Cmax [1, 10]: 654 ng/mL
Half-life [1, 10]: 34.6 h
Tmax [1, 10]: 2.00 h
CL/F [1, 11]: 58.4 L/h
Half-life [1, 11]: 24.4 h
AUCinf [1, 12]: 805 ng·h/mL
AUClast [1, 12]: 777 ng·h/mL
CL/F [1, 12]: 25.4 L/h
Cmax [1, 12]: 259 ng/mL
Half-life [1, 12]: 19.7 h
Tmax [1, 12]: 0.500 h
CL/F ([1]; Cohort 3: 50 mg, APERIOD 1, EXDOSE 50.0, N 8, Geometric Mean): 87.6 L/h
AUCinf [1, 13]: 2140 ng·h/mL
AUClast [1, 13]: 2120 ng·h/mL
CL/F [1, 13]: 660 L/h
Cmax [1, 13]: 507 ng/mL
Half-life [1, 13]: 32.8 h
Tmax [1, 13]: 1.52 h
CL/F [1, 14]: 74.9 L/h
Half-life [1, 14]: 23.3 h
AUCinf [1, 15]: 75.7 ng·h/mL
AUClast [1, 15]: 71.6 ng·h/mL
CL/F [1, 15]: 23.4 L/h
Cmax [1, 15]: 49.6 ng/mL
Half-life [1, 15]: 4.24 h
Tmax [1, 15]: 0.500 h

CCC[C@H](N[C@H]1CCc2cc(F)cc(F)c2C1)C(=O)Nc1cn(C(C)(C)CNCC(C)(C)C)cn1 [nirogacestat, (S)-2-(((S)-6,8-difluoro-1,2,3,4-tetrahydronaphthalen-2-yl)amino)-N-(1-(2-methyl-1-(neopentylamino)propan-2-yl)-1H-imidazol-4-yl)pentanamide]
participants progressing while on therapy [2]: no participants progressing while on therapy
response rate [2]: 29%
tumor shrinkage as measured by magnetic resonance imaging (MRI) [2]: significant tumor shrinkage
